Here are results for eight compounds from PubChem BioAssay AID1755 (Sanford-Burnham Center for Chemical Genomics, 2009).

In general, IC50 refers to the concentration at which inhibition is half-maximal.

Values joined by “and” are separate entries in the source; they are usually repeats but may differ in a detail not shown here. Equal entries are not always repeated. Active and inactive are the calls of the source. The rule behind the calls is not given here.

This experiment deals with MDA-MB-435 TRAIL-induced apoptosis potentiation, viability. The experiment is described as follows: TRAIL apoptosis potentiation, viability loss, SAR follow-up, cell-based, MDA-MB-435, analog series (AID 1755).
On to `CCSc1nc(-c2ccccc2)cc(=O)[nH]1`, for which the IC50 is > 10 µM (inactive). For `CSc1nc(-c2ccccc2)nc(-c2ccccc2OC(C)=O)n1`, the IC50 was > 10 µM (inactive).

For the compound `COc1cc(-c2ccccc2)[nH]c(=S)n1`, the IC50 was > 10 µM (inactive). With `CSc1nc(-c2ccc(C)cc2)nc(C(Cl)Cl)n1`, the IC50 is 4.81 µM and 3.27 µM. Turning to `CCSc1cc(N2CCCC2)nc(-c2ccc(Cl)cc2)n1`, the IC50 is > 10 µM (inactive). For `CSc1nc(-c2ccccc2)nc(C(C)C)n1`, the IC50 was > 10 µM (inactive).

Regarding `CC(Sc1nc(-c2ccccc2)cc(C(F)(F)F)n1)C(=O)N1CCCC1` (stereo not drawn), the IC50 was > 10 µM (inactive).

Regarding `CSc1nc(-c2ccccc2)nc(-c2ccccc2)n1`, the IC50 was > 10 µM (inactive).
